Measurements as given in paper PMC11845761, “Intestinal human carboxylesterase 2 (CES2) expression rescues drug metabolism and most metabolic syndrome phenotypes in global Ces2 cluster knockout mice” (Acta Pharmacologica Sinica, 2024).
Like-named read-outs stand apart in the source and are kept apart here. Marks after values point to notes of the source that are not given here.

Assays:
[1] = Plasma pharmacokinetics of capecitabine and its metabolites after oral capecitabine in CES2-modified mice; format: in vivo, mouse; conditions: oral capecitabine 500 mg/kg, plasma; for AUC(0-t) / Cmax / Tmax: female, mouse, po, 500 mg/kg; for AUC(0-t): read-out: AUC0-2h; for Tmax: read-out: Tmax
Protocol: (§1) For capecitabine 2-h experiments, 6–7 female mice received oral capecitabine (500 mg/kg, 10 μL/g), and tail vein blood samples were collected at 0.125, 0.25, 0.5 and 1 h after drug administration. For the vinorelbine 4-h experiment, 6-7 male mice received vinorelbine intravenously (10 mg/kg, 5 μL/g) or orally (10 mg/kg, 10 μL/g) using a blunt-ended needle. Tail vein blood samples were collected at 0.125, 0.25, 0.5, 1 and 2 h after drug administration. […] At the last time point in each experiment (2 or 4 h), mice were anesthetized with 5% isoflurane and blood was collected by cardiac puncture. […] Plasma was isolated from the blood by centrifugation at 9000 × g for 6 min at 4 °C, and the plasma fraction was collected and stored at −30 °C until analysis.
(§2) Concentrations of capecitabine (and its metabolites) and vinorelbine (and its metabolite) in mouse plasma samples and organ homogenates were determined using two independent validated high-performance liquid chromatography-tandem mass spectrometry assays.
(§3) Pharmacokinetic parameters were calculated by non-compartmental methods using the PK solver software. […] Differences were considered statistically significant when P < 0.05. All data are presented as mean ± SD.

[2] = Tissue concentrations of capecitabine and its metabolites 2 h after oral capecitabine in CES2-modified mice; format: in vivo, mouse; conditions: oral capecitabine 500 mg/kg; for concentration at 2 h: female, mouse, oral, 500 mg/kg
Protocol: as §1, §2, §3

[3] = Ces2^–/– (Ces2 cluster knockout), female Ces2^–/– mice
[4] = Ces2^–/– (Ces2 cluster knockout), female Ces2^–/– mice, read-out: Cmax
[5] = female Ces2^–/–A mice, read-out: Cmax
[6] = female Ces2^–/–V mice, read-out: Cmax
[7] = female wild-type mice, read-out: Cmax
[8] = Ces2^-/-, liver, female Ces2^–/– mice, read-out: Cliver (liver concentration)
[9] = Ces2^-/-, small intestine, female Ces2^–/– mice, read-out: CSI (small intestine tissue concentration)
[10] = Ces2^-/-A, liver, female Ces2^–/–A mice, read-out: Cliver (liver concentration)
[11] = Ces2^-/-A, small intestine tissue, female Ces2^–/–A mice, read-out: CSI (small intestine tissue concentration)
[12] = Ces2^-/-V, liver, female Ces2^–/–V mice, read-out: Cliver (liver concentration)
[13] = Ces2^-/-V, small intestine, female Ces2^–/–V mice, read-out: CSI (small intestine tissue concentration)
[14] = colon, female Ces2^–/– mice, read-out: Ccolon (colon concentration)
[15] = colon, female Ces2^–/–A mice, read-out: Ccolon (colon concentration)
[16] = colon, female Ces2^–/–V mice, read-out: Ccolon (colon concentration)
[17] = colon, female wild-type mice, read-out: Ccolon (colon concentration)
[18] = liver, female wild-type mice, read-out: Cliver (liver concentration)
[19] = small intestine contents, female Ces2^–/– mice, read-out: CSIC (small intestine contents concentration)
[20] = small intestine contents, female Ces2^–/–A mice, read-out: CSIC (small intestine contents concentration)
[21] = small intestine contents, female Ces2^–/–V mice, read-out: CSIC (small intestine contents concentration)
[22] = small intestine contents, female wild-type mice, read-out: CSIC (small intestine contents concentration)
[23] = small intestine tissue, female wild-type mice, read-out: CSI (small intestine tissue concentration)

With `O=c1[nH]cc(F)c(=O)[nH]1` [5-FU, 5-fluorouracil, reference compound] the “AUC0-2h ratio (×10^−3) (5-FU/capecitabine)” value ([1]; female Ces2^–/– mice) was 6.4 ± 2.1 ×10^−3, the “AUC0-2h ratio (×10^−3) (5-FU/capecitabine)” value ([1]; female Ces2^–/–A mice) was 8.0 ± 2.7 ×10^−3 and the “AUC0-2h ratio (×10^−3) (5-FU/capecitabine)” value ([1]; female Ces2^–/–V mice) was 13 ± 1.6***^###^ ×10^−3. For the same compound, the “AUC0-2h ratio (×10^−3) (5-FU/capecitabine)” value ([1]; female wild-type mice) was 29 ± 8.1 ×10^−3, the AUC(0-t) [1, 3] was 187 ± 98 ng·h/mL and the Cmax [1, 4] was 147 ± 96 ng/mL. The Tmax [1, 3] was 55.8 ± 11.4 min, the AUC(0-t) ([1]; female Ces2^–/–A mice) was 218 ± 79 ng·h/mL and the Cmax [1, 5] was 159 ± 56 ng/mL. The Tmax ([1]; female Ces2^–/–A mice) was 55.2 ± 12 min, the AUC(0-t) ([1]; female Ces2^–/–V mice) was 215 ± 100 ng·h/mL and the Cmax [1, 6] was 156 ± 81 ng/mL. It also gave a Tmax ([1]; female Ces2^–/–V mice) of 51.6 ± 14.4 min, an AUC(0-t) ([1]; female wild-type mice) of 168 ± 41 ng·h/mL and a Cmax [1, 7] of 105 ± 36 ng/mL. For the same compound, the Tmax ([1]; female wild-type mice) was 30 ± 16.2 min, the Cmax ([1]; female wild-type, Ces2^–/–, Ces2^–/–A and Ces2^–/–V mice, read-out: mean Cmax, range over the mouse models) was 105 to 159 ng/mL and the “Colon concentration ratio (metabolite/capecitabine)” value ([2]; female Ces2^–/– mice) was 0.14 ± 0.03. For the same compound, the “Liver concentration ratio (metabolite/capecitabine)” value ([2]; female Ces2^–/– mice) was 0.09 ± 0.03, the “Small intestine concentration ratio (metabolite/capecitabine)” value ([2]; female Ces2^–/– mice) was 0.32 ± 0.10 and the “Small intestine contents Ratio (x 10^-3) (5-FU/Capecitabine)” value (“Small intestine contents Ratio” for short) ([2]; female Ces2^–/– mice) was 2.1 ± 0.7 x 10^-3. For the same compound, the “Colon concentration ratio (metabolite/capecitabine)” value ([2]; female Ces2^–/–A mice) was 0.17 ± 0.02, the “Liver concentration ratio (metabolite/capecitabine)” value ([2]; female Ces2^–/–A mice) was 0.52 ± 0.25 and the “Small intestine concentration ratio (metabolite/capecitabine)” value ([2]; female Ces2^–/–A mice) was 0.32 ± 0.11. The “Small intestine contents Ratio” value ([2]; female Ces2^–/–A mice) was 1.9 ± 1.6 x 10^-3, the “Colon concentration ratio (metabolite/capecitabine)” value ([2]; female Ces2^–/–V mice) was 0.50 ± 0.18^###^^^ and the “Liver concentration ratio (metabolite/capecitabine)” value ([2]; female Ces2^–/–V mice) was 0.24 ± 0.07***^###^. The “Small intestine concentration ratio (metabolite/capecitabine)” value ([2]; female Ces2^–/–V mice) was 2.0 ± 0.9^###^^^, the “Small intestine contents Ratio” value ([2]; female Ces2^–/–V mice) was 6.8 ± 3.0##^^ x 10^-3 and the “Colon concentration ratio (metabolite/capecitabine)” value ([2]; female wild-type mice) was 0.53 ± 0.09. For the same compound, the “Liver concentration ratio (metabolite/capecitabine)” value ([2]; female wild-type mice) was 0.65 ± 0.31, the “Small intestine concentration ratio (metabolite/capecitabine)” value ([2]; female wild-type mice) was 2.1 ± 0.8 and the “Small intestine contents Ratio” value ([2]; female wild-type mice) was 5.1 ± 3.4 x 10^-3. It also gave a concentration at 2 h [2, 8] of 1520 ± 765 ng/g, a concentration at 2 h [2, 9] of 5200 ± 2040 ng/g and a concentration at 2 h [2, 10] of 2140 ± 372 ng/g. It also gave a concentration at 2 h [2, 11] of 4430 ± 1510 ng/g, a concentration at 2 h [2, 12] of 1420 ± 574 ng/g and a concentration at 2 h [2, 13] of 4120 ± 1840 ng/g. It also gave a concentration at 2 h [2, 14] of 1830 ± 1010 ng/g, a concentration at 2 h [2, 15] of 1460 ± 233 ng/g and a concentration at 2 h [2, 16] of 2100 ± 1020 ng/g. It also gave a concentration at 2 h [2, 17] of 1190 ± 486 ng/g, a concentration at 2 h [2, 18] of 747 ± 184 ng/g and a concentration at 2 h [2, 19] of 200 ± 109 ng/g. It also gave a concentration at 2 h [2, 20] of 142 ± 64 ng/g, a concentration at 2 h [2, 21] of 263 ± 149 ng/g and a concentration at 2 h [2, 22] of 125 ± 90 ng/g. For the same compound, the concentration at 2 h [2, 23] was 3020 ± 835 ng/g.

For `C[C@H]1O[C@@H](n2cc(F)c(N)nc2=O)[C@H](O)[C@@H]1O` [5’-DFCR, 5’-deoxy-5-fluorocytidine], the “AUC0-2h ratio (metabolite/capecitabine)” value ([1]; female Ces2^–/– mice) was 6.4 ± 1.9, the “AUC0-2h ratio (metabolite/capecitabine)” value ([1]; female Ces2^–/–A mice) was 6.4 ± 2.4 and the “AUC0-2h ratio (metabolite/capecitabine)” value ([1]; female Ces2^–/–V mice) was 8.0 ± 2.2. The “AUC0-2h ratio (metabolite/capecitabine)” value ([1]; female wild-type mice) was 21.3 ± 3.5, the AUC(0-t) [1, 3] was 175000 ± 37300 ng·h/mL and the Cmax [1, 4] was 121000 ± 23800 ng/mL. For the same compound, the Tmax [1, 3] was 27.6 ± 16.2 min, the AUC(0-t) ([1]; female Ces2^–/–A mice) was 165000 ± 45200 ng·h/mL and the Cmax [1, 5] was 117000 ± 35700 ng/mL. It also gave a Tmax ([1]; female Ces2^–/–A mice) of 27.6 ± 6 min, an AUC(0-t) ([1]; female Ces2^–/–V mice) of 123000 ± 34700 ng·h/mL and a Cmax [1, 6] of 80000 ± 18200 ng/mL. For the same compound, the Tmax ([1]; female Ces2^–/–V mice) was 36.6 ± 22.8 min, the AUC(0-t) ([1]; female wild-type mice) was 123000 ± 24900 ng·h/mL and the Cmax [1, 7] was 101000 ± 18000 ng/mL. For the same compound, the Tmax ([1]; female wild-type mice) was 15 ± 8.4 min, the “Colon concentration ratio (metabolite/capecitabine)” value ([2]; female Ces2^–/– mice) was 2.0 ± 0.4 and the “Liver concentration ratio (metabolite/capecitabine)” value ([2]; female Ces2^–/– mice) was 2.0 ± 0.6. For the same compound, the “Small intestine concentration ratio (metabolite/capecitabine)” value ([2]; female Ces2^–/– mice) was 0.36 ± 0.20, the “Small intestine contents concentration ratio (metabolite/capecitabine)” value ([2]; female Ces2^–/– mice) was 0.11 ± 0.04 and the “Colon concentration ratio (metabolite/capecitabine)” value ([2]; female Ces2^–/–A mice) was 3.2 ± 0.2. The “Liver concentration ratio (metabolite/capecitabine)” value ([2]; female Ces2^–/–A mice) was 8.8 ± 3.6, the “Small intestine concentration ratio (metabolite/capecitabine)” value ([2]; female Ces2^–/–A mice) was 0.45 ± 0.21 and the “Small intestine contents concentration ratio (metabolite/capecitabine)” value ([2]; female Ces2^–/–A mice) was 0.10 ± 0.06. The “Colon concentration ratio (metabolite/capecitabine)” value ([2]; female Ces2^–/–V mice) was 5.1 ± 2.1, the “Liver concentration ratio (metabolite/capecitabine)” value ([2]; female Ces2^–/–V mice) was 4.0 ± 1.0***##^^ and the “Small intestine concentration ratio (metabolite/capecitabine)” value ([2]; female Ces2^–/–V mice) was 1.80 ± 0.88^###^^^. The “Small intestine contents concentration ratio (metabolite/capecitabine)” value ([2]; female Ces2^–/–V mice) was 0.13 ± 0.05, the “Colon concentration ratio (metabolite/capecitabine)” value ([2]; female wild-type mice) was 6.9 ± 1.3 and the “Liver concentration ratio (metabolite/capecitabine)” value ([2]; female wild-type mice) was 17.4 ± 7.3. The “Small intestine concentration ratio (metabolite/capecitabine)” value ([2]; female wild-type mice) was 3.20 ± 1.70, the “Small intestine contents concentration ratio (metabolite/capecitabine)” value ([2]; female wild-type mice) was 0.19 ± 0.08 and the concentration at 2 h [2, 8] was 33300 ± 11600 ng/g. It also gave a concentration at 2 h [2, 9] of 5410 ± 1430 ng/g, a concentration at 2 h [2, 10] of 36600 ± 5870 ng/g and a concentration at 2 h [2, 11] of 6220 ± 1830 ng/g. The concentration at 2 h [2, 12] was 23300 ± 8530 ng/g, the concentration at 2 h [2, 13] was 3600 ± 1570 ng/g and the concentration at 2 h [2, 14] was 25700 ± 10700 ng/g. The concentration at 2 h [2, 15] was 28200 ± 5870 ng/g, the concentration at 2 h [2, 16] was 21200 ± 8100 ng/g and the concentration at 2 h [2, 17] was 14900 ± 3800 ng/g. The concentration at 2 h [2, 18] was 20300 ± 5740 ng/g, the concentration at 2 h [2, 19] was 10800 ± 5610 ng/g and the concentration at 2 h [2, 20] was 8120 ± 2840 ng/g. For the same compound, the concentration at 2 h [2, 21] was 5180 ± 2410 ng/g, the concentration at 2 h [2, 22] was 4410 ± 2350 ng/g and the concentration at 2 h [2, 23] was 4510 ± 1340 ng/g.
